Measurements as given in patent US20260041683A1, “Compounds with Anti-Acinetobacter Baumannii Activity” (University of Kentucky Research Foundation, priority 2022, published 2026).
Converted amounts (≈) assume the structure as drawn. Read-outs that look alike come from different tables or passages of the source.

How the values were obtained:
S. aureus ATCC 25923 = assay: MIC determination; assay type: cell-based; conditions: Staphylococcus aureus, ATCC25923; Table 5; Mueller-Hinton medium; B = S. aureus ATCC 25923; read-out: MIC strain B
[1] = tested on: all 43 strains of A. baumannii (41 CDC strains and 2 ATCC strains); assay: MIC value statistics for all A. baumannii strains; assay type: cell-based, Acinetobacter baumannii; conditions: of 43 A. baumannii strains
Experimental: All bacterial strains listed above were stored at −80° C. All strains were streaked on Mueller-Hinton (MH) plates and allowed to grow at 37° C. overnight. Enough colonies were scraped from the plate and suspended in MH broth with vortexing to reach an attenuance at 600 nm (OD600) of ˜0.5. The resulting culture was diluted 1:1000 and added to the prepared serially doubly diluted compound solutions in 96-well plates. […]. For each row, one well was reserved for sterile control (which consisted of 200 μL of MH medium) and another well was reserved for growth control (which consisted of 100 μL of MH medium seeded with 100 μL of bacterial culture).
Having established that the observed activity is selective to A. baumannii, all synthesized compounds were tested against a panel of antibiotic resistant A. baumannii from the Antimicrobial Resistant (AR) Isolate Bank from the CDC along with strains I and J (Table Si). […]. Based on this statistical analysis, the best compound is 5e followed closely by 3e.

E. cloacae ATCC 13047 = assay: MIC determination; assay type: cell-based; conditions: Enterobacter cloacae, ATCC13047; Table 5; Mueller-Hinton medium; E = E. cloacae ATCC 13047; read-out: MIC strain E
B. anthracis Sterne F32 = assay: microbe, parasite or virus in culture; assay type: cell-based; conditions: Bacillus anthracis, STERNEF32, read-out: MIC strain A
E. coli MC1061 = assay: MIC determination; assay type: cell-based; conditions: Escherichia coli; Table 5; Mueller-Hinton medium; D = E. coli MC1061; read-out: MIC strain D
[2] = tested on: S. epidermidis ATCC 12228; assay: MIC determination; assay type: cell-based; conditions: Staphylococcus epidermidis, ATCC12228; Table 5; Mueller-Hinton medium; C = S. epidermidis ATCC 12228; read-out: MIC strain C
[3] = tested on: Ab ATCC BAA1605 (strain J, multidrug-resistant); assay: MIC determination; assay type: cell-based; conditions: Acinetobacter baumannii
Experimental: (§1) All bacterial strains listed above were stored at −80° C. All strains were streaked on Mueller-Hinton (MH) plates and allowed to grow at 37° C. overnight. Enough colonies were scraped from the plate and suspended in MH broth with vortexing to reach an attenuance at 600 nm (OD600) of ˜0.5. The resulting culture was diluted 1:1000 and added to the prepared serially doubly diluted compound solutions in 96-well plates. For M. smegmatis, a 1:100 dilution of the bacteria was done in MH. All MIC values were determined using 96-well plates with low evaporation seals at least in duplicate. For each row, one well was reserved for sterile control (which consisted of 200 μL of MH medium) and another well was reserved for growth control (which consisted of 100 μL of MH medium seeded with 100 μL of bacterial culture).
(§2) Minimum inhibitory concentrations (MIC) of all compounds from the series were measured in liquid cultures of different Ab strains by a double-dilution method in Mueller-Hinton broth. Initially, the activity of all 46 compounds against Ab ATCC 19606 (a control strain) and Ab ATCC BAA1605 (a multidrug-resistant strain) (Table 1; data shown for 27 representative compounds) was measured.

P. aeruginosa ATCC 27853 = assay: MIC determination; assay type: cell-based; conditions: Pseudomonas aeruginosa, ATCC27853; Table 5; Mueller-Hinton medium; G = P. aeruginosa ATCC 27853; read-out: MIC strain G
K. pneumoniae ATCC 27736 = assay: MIC determination; assay type: cell-based; conditions: Klebsiella pneumoniae, ATCC27736; Table 5; Mueller-Hinton medium; F = K. pneumoniae ATCC 27736; read-out: MIC strain F
Ab ATCC 19606 (strain I) = assay: MIC determination (double dilution, Mueller-Hinton broth); assay type: cell-based, Acinetobacter baumannii; conditions: Acinetobacter baumannii, ATCC19606
Experimental: as §1, with “Enough colonies were scraped from the plate and suspended in MH broth with vortexing to reach an attenuance at 600 nm (OD600) of ˜0.5.” left out
as §2

S. enterica ATCC 14028 = assay: MIC determination; assay type: cell-based; conditions: Salmonella enterica, ATCC14028; Table 5; Mueller-Hinton medium; H = S. enterica ATCC 14028; read-out: MIC strain H
[4] = Table 1, multidrug-resistant strain, read-out: MIC Ab ATCC BAA 1605
[5] = Table 5, Mueller-Hinton medium, J = A. baumannii BAA1605, read-out: MIC strain J
[6] = Table 1, control strain, read-out: MIC Ab ATCC 19606
[7] = Table 5, Mueller-Hinton medium, I = A. baumannii ATCC 19606, read-out: MIC strain I

Compound	MIC (S. aureus ATCC 25923) [µg/mL]	number of compound/strain combinations with MIC value 0.25 μg/mL [1]	number of compound/strain combinations with MIC value 0.5 μg/mL [1]	number of compound/strain combinations with MIC value ≤0.125 μg/mL [1]	MIC (E. cloacae ATCC 13047) [µg/mL]	MIC (B. anthracis Sterne F32) [µg/mL]	MIC (E. coli MC1061) [µg/mL]	MIC [2] [µg/mL]	MIC [3, 4] [µg/mL]	MIC [3, 5] [µg/mL]	MIC (P. aeruginosa ATCC 27853) [µg/mL]	MIC (K. pneumoniae ATCC 27736) [µg/mL]	MIC (Ab ATCC 19606 (strain I); [6]) [µg/mL]	MIC (Ab ATCC 19606 (strain I); [7]) [µg/mL]	MIC (S. enterica ATCC 14028) [µg/mL]	number of compound/strain combinations with MIC value 1 μg/mL [1]	number of compound/strain combinations with MIC value >64 μg/mL [1]	number of compound/strain combinations with MIC value 2 μg/mL [1]	number of compound/strain combinations with MIC value 4 μg/mL [1]	number of compound/strain combinations with MIC value 8 μg/mL [1]
C=CC(=O)NNc1ccc(Cl)cc1 [Compound 17e]	64 (≈ 325 µM)	21	13	9	16 (≈ 81.4 µM)	> 64	16 (≈ 81.4 µM)	64 (≈ 325 µM)	0.25 (≈ 1.27 µM)	0.25 (≈ 1.27 µM)	> 64	16 (≈ 81.4 µM)	0.25 (≈ 1.27 µM)	0.25 (≈ 1.27 µM)	16 (≈ 81.4 µM)	–	–	–	–	–
O=C(NNc1ccc(F)cc1)c1ccc(F)cn1 [Compound 3d]	> 64	10	19	1	64 (≈ 257 µM)	> 64	64 (≈ 257 µM)	> 64	0.25 (≈ 1 µM)	0.25 (≈ 1 µM)	> 64	64 (≈ 257 µM)	0.5 (≈ 2.01 µM)	0.5 (≈ 2.01 µM)	64 (≈ 257 µM)	13	–	–	–	–
CCOC(=O)CNNC(=O)c1ccc2ccccc2n1 [Compound 12g]	> 64	–	–	–	> 64	> 64	> 64	> 64	–	> 64	> 64	> 64	–	> 64	> 64	–	43	–	–	–
COc1ccc(NNC(=O)c2ccc(F)cn2)cc1 [Compound 3f]	> 64	1	2	–	> 64	> 64	> 64	> 64	0.5 (≈ 1.91 µM)	0.5 (≈ 1.91 µM)	> 64	> 64	1 (≈ 3.83 µM)	1 (≈ 3.83 µM)	> 64	9	–	19	11	1
O=C(NNc1ccc(Cl)cc1)c1cc2ccccc2[nH]1 [Compound 14e]	> 64	18	20	3	> 64	> 64	> 64	> 64	–	0.25 (≈ 0.875 µM)	> 64	> 64	–	0.5 (≈ 1.75 µM)	> 64	2	–	–	–	–
O=C(NNc1cccc(F)c1)c1ccc(F)cn1 [Compound 3a]	> 64	16	18	9	> 64	> 64	64 (≈ 257 µM)	> 64	0.5 (≈ 2.01 µM)	0.5 (≈ 2.01 µM)	> 64	> 64	0.5 (≈ 2.01 µM)	0.5 (≈ 2.01 µM)	> 64	–	–	–	–	–
O=C(NNC1CCCCC1)c1ccc2ccccc2n1 [Compound 12h]	> 64	–	–	–	> 64	> 64	64 (≈ 238 µM)	> 64	–	> 64	> 64	> 64	–	> 64	> 64	–	43	–	–	–
CCC(=O)NNc1ccc(Cl)cc1 [Compound 16e]	> 64	17	10	15	16 (≈ 80.5 µM)	> 64	16 (≈ 80.5 µM)	> 64	≤ 0.125	≤ 0.125	> 64	16 (≈ 80.5 µM)	≤ 0.25	≤ 0.125	64 (≈ 322 µM)	1	–	–	–	–
